How the values were obtained:
MOOVA Monochoria = assay: Preemergence weed control, flooded paddy (Table III); type: in vivo, Monochoria vaginalis; set-up: scale not given here
Method: (§1) Preemergence herbicidal activity under flooded paddy conditions is determined as follows: plant seeds or propagating organs are planted in the top 0.5 cm of silt loam soil in 32 oz. plastic containers with a diameter of 10.5 cm and no drainage holes. Water is added to these containers and maintained at 1.5 to 3 cm above the soil surface for the duration of the experiment. The test compounds are applied as aqueous/acetone mixtures 50/50 v/v pipetted directly into the flood water to give the equivalent of about 0.0313 to 0.500 kg/ha of active ingredient. The treated containers are placed on greenhouse benches and cared for in accordance with conventional greenhouse procedures. Three to four weeks after treatment, the test is terminated and each container is examined and herbicidal effect rated according to the rating system provided in Example 185. The compounds evaluated are reported by compound number given in Example 185.

[1] = system: Barnyardgrass, Echinochloa crus-galli; assay: Preemergence herbicidal evaluation, ECHCG; type: in vivo, (L.) Beau; conditions: 0.2500 kg/ha
Method in brief: (§2)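 Sow seeds in soil-filled cups; spray aqueous acetone compound solution at about 0.0156–0.500 kg/ha; keep on greenhouse benches with routine watering; after four to five weeks, rate visual injury 0–9 compared with control plants.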

[2] = system: Sicklepod, Cassia obtusifolia; assay: Postemergence herbicidal evaluation, CASOB; type: in vivo, L.; conditions: 0.2500 kg/ha
Method in brief: (§3)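 Postemergence spray on ~2-wk seedlings: ~0.0157–0.500 kg/ha in acetone/water 50/50, 0.5% TWEEN 20, 40 psi. Greenhouse hold 4–5 wk, then 0–9 visual score; repeat tests averaged.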

Galium, Galium aparine = assay: Postemergence herbicidal evaluation, GALAP; type: in vivo; conditions: 0.2500 kg/ha
Method in brief: as §3

Corn, Field, Zea mays [3] = assay: Postemergence herbicidal evaluation, ZEAMX; type: in vivo, L.; conditions: 0.2500 kg/ha
Method in brief: as §3

[4] = system: Foxtail, Green, Setaria viridis; assay: Postemergence herbicidal evaluation, SETVI; type: in vivo, (L.) Beau; conditions: 0.2500 kg/ha
Method in brief: as §3

CYPIR Rice Flatsedge [5] = assay: Postemergence weed control, flooded paddy (Table IV); type: in vivo, Cyperus iria; set-up: scale not given here
Method in brief: (§4)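 Rating scale scores taken 3–4 weeks post-treatment; compounds dosed in flood water (~0.0313–0.500 kg/ha) onto weeds 3–5 cm tall and 1.5–2.5 leaf rice under 1.5–3 cm standing water.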

[6] = system: ECHORC Watergrass (Calif.); assay: as above; type: in vivo, Echinochloa oryzoides; set-up: scale not given here
Method in brief: as §4

[7] = system: Wheat, Winter, cv Riband, Triticum aestivum; assay: Postemergence herbicidal evaluation, TRZAWR; type: in vivo; conditions: 0.2500 kg/ha
Method in brief: as §3

[8] = system: Ragweed, Common, Ambrosia artemisifolia; assay: Postemergence herbicidal evaluation, AMBEL; type: in vivo, L.; conditions: 0.2500 kg/ha
Method in brief: as §3

[9] = system: ECHORC Watergrass (Calif.); assay: Preemergence weed control, flooded paddy (Table III); type: in vivo, Echinochloa oryzoides; set-up: scale not given here
Method: as §1

[10] = system: Barnyardgrass, Echinochloa crus-galli; assay: Postemergence herbicidal evaluation, ECHCG; type: in vivo, (L.) Beau; conditions: 0.2500 kg/ha
Method in brief: as §3

CYPIR Rice Flatsedge [11] = assay: Preemergence weed control, flooded paddy (Table III); type: in vivo, Cyperus iria; set-up: scale not given here
Method: as §1

[12] = system: Rice, Tebonnet, Oryza sativa; assay: Postemergence herbicidal evaluation, ORYSAT; type: in vivo, (L.) Tebonnet; conditions: 0.2500 kg/ha
Method in brief: as §3

[13] = system: Rice, Tebonnet, Oryza sativa; assay: Preemergence herbicidal evaluation, ORYSAT; type: in vivo, (L.) Tebonnet; conditions: 0.2500 kg/ha
Method in brief: as §2

[14] = system: Foxtail, Green, Setaria viridis; assay: Preemergence herbicidal evaluation, SETVI; type: in vivo, (L.) Beau; conditions: 0.2500 kg/ha
Method in brief: as §2

ORYSAT Rice, Tebonnet = assay: Rice tolerance, flooded paddy (Table IV); type: in vivo, Oryza sativa; set-up: scale not given here; conditions: crop tolerance
Method in brief: as §4

[15] = system: Ragweed, Common, Ambrosia artemisifolia; assay: Preemergence herbicidal evaluation, AMBEL; type: in vivo, L.; conditions: 0.2500 kg/ha
Method in brief: as §2

Corn, Field, Zea mays [16] = assay: Preemergence herbicidal evaluation, ZEAMX; type: in vivo, L.; conditions: 0.2500 kg/ha
Method in brief: as §2

[17] = system: Velvetleaf, Abutilon theophrasti; assay: Preemergence herbicidal evaluation, ABUTH; type: in vivo, Medic.; conditions: 0.2500 kg/ha
Method in brief: as §2

[18] = system: Wheat, Winter, cv Riband, Triticum aestivum; assay: Preemergence herbicidal evaluation, TRZAWR; type: in vivo; conditions: 0.2500 kg/ha
Method in brief: as §2

| Structure (SMILES) | herbicidal effect rating (MOOVA Monochoria; 0.0625 kg/ha) | herbicidal effect rating (MOOVA Monochoria; 0.1250 kg/ha) | herbicidal effect rating (MOOVA Monochoria; 0.2500 kg/ha) | herbicidal effect rating (MOOVA Monochoria; 0.5000 kg/ha) | herbicide rating (0-9) [1] | herbicide rating (0-9) [2] | herbicide rating (0-9) (Galium, Galium aparine) | herbicide rating (0-9) (Corn, Field, Zea mays [3]) | herbicide rating (0-9) [4] | herbicidal effect rating (CYPIR Rice Flatsedge [5]; 0.1250 kg/ha) | herbicidal effect rating (CYPIR Rice Flatsedge [5]; 0.2500 kg/ha) | herbicidal effect rating (CYPIR Rice Flatsedge [5]; 0.5000 kg/ha) | herbicidal effect rating ([6]; 0.1250 kg/ha) | herbicidal effect rating ([6]; 0.2500 kg/ha) | herbicidal effect rating ([6]; 0.5000 kg/ha) | herbicide rating (0-9) [7] | herbicide rating (0-9) [8] | herbicidal effect rating ([9]; 0.0625 kg/ha) | herbicidal effect rating ([9]; 0.1250 kg/ha) | herbicidal effect rating ([9]; 0.2500 kg/ha) | other results |
| --- | --- | --- | --- | --- | --- | --- | --- | --- | --- | --- | --- | --- | --- | --- | --- | --- | --- | --- | --- | --- | --- |
| COC(=O)COc1cc(C)ccc1-c1nsc2ccc(-n3c(=O)cc(C(F)(F)F)n(C)c3=O)cc12 [Compound 8, Methyl {{6-{5-[3,6-dihydro-3-methyl-4-(trifluoromethyl)-2,6-dioxo-1(2H)-pyrimidinyl]-1,2-benzisothiazol-3-yl}-m-tolyl}oxy}acetate] | 9.0 | 9.0 | 9.0 | 9.0 | 9.0 | 9.0 | 9.0 | 9.0 | 9.0 | 9.0 | 9.0 | 9.0 | 9.0 | 9.0 | 9.0 | 9.0 | 9.0 | 9.0 | 9.0 | 9.0 | herbicidal effect rating (MOOVA Monochoria; 0.0313 kg/ha): 9.0; herbicidal effect rating ([9]; 0.0313 kg/ha): 9.0; herbicidal effect rating ([9]; 0.5000 kg/ha): 9.0; herbicide rating (0-9) [10]: 9.0; herbicidal effect rating (CYPIR Rice Flatsedge [11]; 0.0313 kg/ha): 9.0; herbicidal effect rating (CYPIR Rice Flatsedge [11]; 0.0625 kg/ha): 9.0; herbicidal effect rating (CYPIR Rice Flatsedge [11]; 0.1250 kg/ha): 9.0; herbicidal effect rating (CYPIR Rice Flatsedge [11]; 0.2500 kg/ha): 9.0; herbicidal effect rating (CYPIR Rice Flatsedge [11]; 0.5000 kg/ha): 9.0; herbicide rating (0-9) [12]: 8.5; herbicide rating (0-9) [13]: 9.0; herbicide rating (0-9) [14]: 9.0; herbicidal effect rating (ORYSAT Rice, Tebonnet; 0.1250 kg/ha): 6.0; herbicidal effect rating (ORYSAT Rice, Tebonnet; 0.2500 kg/ha): 8.0; herbicidal effect rating (ORYSAT Rice, Tebonnet; 0.5000 kg/ha): 9.0; herbicide rating (0-9) [15]: 9.0; herbicide rating (0-9) (Corn, Field, Zea mays [16]): 9.0; herbicide rating (0-9) [17]: 9.0; herbicide rating (0-9) [18]: 9.0 |
| COC(=O)C(C)Oc1cc(C)ccc1-c1nsc2ccc(-n3c(=O)cc(C(F)(F)F)n(C)c3=O)cc12 (stereo not drawn) [Compound 9, Methyl 2-{{6-{5-[3,6-dihydro-3-methyl-4-(trifluoromethyl)-2,6-dioxo-1(2H)-pyrimidinyl]-1,2-benzisothiazol-3-yl}-m-tolyl}oxy}propionate] | 9.0 | 9.0 | 9.0 | 9.0 | 9.0 | 9.0 | 8.0 | 9.0 | 9.0 | 9.0 | 9.0 | 9.0 | 9.0 | 9.0 | 9.0 | 9.0 | 9.0 | 9.0 | 9.0 | 9.0 | herbicidal effect rating (MOOVA Monochoria; 0.0313 kg/ha): 9.0; herbicidal effect rating ([9]; 0.0313 kg/ha): 9.0; herbicidal effect rating ([9]; 0.5000 kg/ha): 9.0; herbicide rating (0-9) [10]: 9.0; herbicidal effect rating (CYPIR Rice Flatsedge [11]; 0.0313 kg/ha): 9.0; herbicidal effect rating (CYPIR Rice Flatsedge [11]; 0.0625 kg/ha): 9.0; herbicidal effect rating (CYPIR Rice Flatsedge [11]; 0.1250 kg/ha): 9.0; herbicidal effect rating (CYPIR Rice Flatsedge [11]; 0.2500 kg/ha): 9.0; herbicidal effect rating (CYPIR Rice Flatsedge [11]; 0.5000 kg/ha): 9.0; herbicide rating (0-9) [12]: 9.0; herbicide rating (0-9) [13]: 9.0; herbicide rating (0-9) [14]: 9.0; herbicidal effect rating (ORYSAT Rice, Tebonnet; 0.1250 kg/ha): 7.0; herbicidal effect rating (ORYSAT Rice, Tebonnet; 0.2500 kg/ha): 9.0; herbicidal effect rating (ORYSAT Rice, Tebonnet; 0.5000 kg/ha): 9.0; herbicide rating (0-9) [15]: 9.0; herbicide rating (0-9) (Corn, Field, Zea mays [16]): 9.0; herbicide rating (0-9) [17]: 9.0; herbicide rating (0-9) [18]: 9.0 |
| Cc1cc(O)c(-c2nsc3ccc(-n4c(=O)cc(C(F)(F)F)n(C)c4=O)cc23)cc1C [Compound 11, 3-[3-(6-Hydroxy-3,4-xylyl)-1,2-benzisothiazol-5-yl]-1-methyl-6-(trifluoromethyl)-2,4(1H,3H)-pyrimidinedione] | 9.0 | 9.0 | 9.0 | 9.0 | 0.0 | 7.0 | 6.0 | 5.5 | 8.0 | 9.0 | 9.0 | 9.0 | 2.0 | 4.0 | 7.0 | 5.0 | 9.0 | 7.0 | 8.0 | 8.0 | herbicidal effect rating ([9]; 0.5000 kg/ha): 9.0; herbicide rating (0-9) [10]: 7.0; herbicidal effect rating (CYPIR Rice Flatsedge [11]; 0.0625 kg/ha): 9.0; herbicidal effect rating (CYPIR Rice Flatsedge [11]; 0.1250 kg/ha): 9.0; herbicidal effect rating (CYPIR Rice Flatsedge [11]; 0.2500 kg/ha): 9.0; herbicidal effect rating (CYPIR Rice Flatsedge [11]; 0.5000 kg/ha): 9.0; herbicide rating (0-9) [12]: 2.0; herbicide rating (0-9) [13]: 0.0; herbicide rating (0-9) [14]: 9.0; herbicidal effect rating (ORYSAT Rice, Tebonnet; 0.1250 kg/ha): 0.0; herbicidal effect rating (ORYSAT Rice, Tebonnet; 0.2500 kg/ha): 1.0; herbicidal effect rating (ORYSAT Rice, Tebonnet; 0.5000 kg/ha): 1.0; herbicide rating (0-9) [15]: 9.0; herbicide rating (0-9) (Corn, Field, Zea mays [16]): 5.0; herbicide rating (0-9) [17]: 9.0; herbicide rating (0-9) [18]: 4.0 |
| COC(=O)COc1cc(C)c(C)cc1-c1nsc2ccc(-n3c(=O)cc(C(F)(F)F)n(C)c3=O)cc12 [Compound 12, Methyl {{6-{5-[3,6-dihydro-3-methyl-4-(trifluoromethyl)-2,6-dioxo-1(2H)-pyrimidinyl]-1,2-benzisothiazol-3-yl}-3,4-xylyl}oxy}acetate] | 9.0 | 9.0 | 9.0 | 9.0 | 6.0 | 9.0 | 9.0 | 9.0 | 9.0 | 9.0 | 9.0 | 9.0 | 6.0 | 9.0 | 9.0 | 9.0 | 9.0 | 9.0 | 9.0 | 9.0 | herbicidal effect rating (MOOVA Monochoria; 0.0313 kg/ha): 9.0; herbicidal effect rating ([9]; 0.0313 kg/ha): 9.0; herbicidal effect rating ([9]; 0.5000 kg/ha): 9.0; herbicide rating (0-9) [10]: 9.0; herbicidal effect rating (CYPIR Rice Flatsedge [11]; 0.0313 kg/ha): 9.0; herbicidal effect rating (CYPIR Rice Flatsedge [11]; 0.0625 kg/ha): 9.0; herbicidal effect rating (CYPIR Rice Flatsedge [11]; 0.1250 kg/ha): 9.0; herbicidal effect rating (CYPIR Rice Flatsedge [11]; 0.2500 kg/ha): 9.0; herbicidal effect rating (CYPIR Rice Flatsedge [11]; 0.5000 kg/ha): 9.0; herbicide rating (0-9) [12]: 9.0; herbicide rating (0-9) [13]: 7.0; herbicide rating (0-9) [14]: 9.0; herbicidal effect rating (ORYSAT Rice, Tebonnet; 0.1250 kg/ha): 7.0; herbicidal effect rating (ORYSAT Rice, Tebonnet; 0.2500 kg/ha): 7.0; herbicidal effect rating (ORYSAT Rice, Tebonnet; 0.5000 kg/ha): 7.0; herbicide rating (0-9) [15]: 9.0; herbicide rating (0-9) (Corn, Field, Zea mays [16]): 7.0; herbicide rating (0-9) [17]: 9.0; herbicide rating (0-9) [18]: 5.0 |

Reference: patent US6156700A, “3-(1,2-Benzisothiazol- and isoxazol-5-yl)-2,4(1H,3H)-pyrimidinedione or thione and 3-(1,2-benzisothiazol- and isoxazol-5-yl)-4(3H)-pyrimidinone or thione herbicidal agents” (American Cyanmid Company, priority 1998, dated 2000)
